Patent US20220289732A1, “HETEROCYCLIC WDR5 INHIBITORS AS ANTI-CANCER COMPOUNDS” (NOVARTIS AG, priority 2019, published 2022)

How the values were obtained:
[1] = tested on: MV4-11 cells; assay: MV4-11 6-day cell growth CTG (CellTiter-Glo) assay; type: cell-based; conditions: Homo sapiens, MV4-11, 144 h, 6 days, read-out: (c) MLL/WDR5 cell proliferation assay//MLL/WDR5 proliferation MV4:11 Qualified AC50
Procedure: MV4-11 6-Day Cell Growth CTG (CellTiter-Glo) Assay
Acute myeloid leukemia cell MV4-11 (ATCC® CRL-9591™) was cultured with RPMI 1640 medium (Thermo Fisher Scientific, cat #11875) supplemented with 10% FBS (Thermo Fisher Scientific, cat #10099141) in humidified incubator at 37° C., 5% CO2. To assess the effect of WDR5 inhibitor on cell growth, the compound of the present invention was dissolved in DMSO and serially diluted at 1:3 for 12 points starting from 10 mM then 200 nL for the replicate of each dose per well was dispensed to Viewplate-384 Black (Perkin Elmer). Exponentially growing MV4-11 cells were seeded at the density of 300 cells per well in 40 μL to the plate, so the final compound working concentration starts from 50 μM. After 6 days, 40 μL CellTiter-Glo (Promega, cat #G7573) was added into the cell culture well and luminescence was read with Envision (Perkin Elmer) to determine the viable cells. The percentage inhibition was calculated against the samples treated with DMSO only and the data were used for dose response curve fitting in GraphPad Prism to get the IC50 of representative compound of present invention, which reflects the inhibition of WDR5 activity in the proliferation of MV4;11.

[2] = molecular target: WDR5 (Homo sapiens, UniProt P61964); assay: WDR5 HTRF binding assay; conditions: read-out: (a) WDR5 HTRF Pep Val v.1[Inhibitor/IC50]Qualified AC50
Procedure: The compounds were serially diluted 3-fold in DMSO to obtain a total of twelve concentrations. Then the test compounds at each concentration (90 nL of each) were transferred by Mosquito in the white Proxiplate plus 384-well microplate (Perkin Elmer). The assay mixture (typical 9 μL) containing 6 nM WDR5 and 20 nM Biotin-MLL1 WIN peptide (3762-3773) in the assay buffer (25 mM Hepes, pH7.5, 0.05% Tween 20, 2 mM DTT, 100 mM NaCl, 0.1% BSA) were added to the wells. For counter assay, a 9 μL solution of 15 nM Biotin-PEG-His peptide was added into the wells. After 20 min incubation at rt, a 3 μL detection solution containing 14 μg/ml Phycolink Streptavidin Allophycocyanin (Prozyme), 2 nM Anti-His-Eu (PerkinElmer) in assay buffer was then added. After 1 hr incubation, the plate was read in the EnVision reader (PerkinElmer) using the HTRF protocol (The protocol set-up: Lance/Delfia dual enhancer mirror, excitation at 320 UV2 (TRF), emission at APC665, 2nd emission at EuropiμM 615). HTRF signals were normalized based on the reading coming from the positive (maximum signal control) and negative controls (minimum signal control) to give percentage of activities left. The data were then fit to a dose response equation using the program Helios (Novartis) to get the IC50 values. Helios is a Novartis in-house assay data analysis software using the methods described by Normolle, D. P., Statistics in Medicine, 12:2025-2042 (1993); Formenko, I. et al., Computer Methods and programs in Biomedicine, 82, 31-37 (2006); Sebaugh, J. L., Pharmaceutical Statistics, 10:128-134 (2011); Kelly, C. et al., Biometrics, 46(4):1071-1085 (1990); and Kahm, M, et al., Journal of Statistical Software, 33(7):(2010) (grofit: Fitting Biological Growth Curves with R, pages 1-21, available at http://www.jstatsoft.org/).

[3] = molecular target: wild type MLL1 four-member complex (MLL1-4C) (Homo sapiens, UniProt P61964); assay: MLL1 LC-MS assay (SAH production); type: biochemical; conditions: read-out: (b) MLL LCMS Peptide Val.v.1 Qualified AC50
Procedure: The compounds of the present disclosure were serially and separately diluted 3-fold in DMSO to obtain a total of eight or twelve concentrations. Then the test compounds at each concentration (120 nL of each) were transferred by Mosquito into white Proxiplate plus 384-well microplate (PerkinElmer). Solutions (6 μL) of 60 nM wild type MLL1 four-member complex (MLL1-4C) and 5 μM SAM in the reaction buffer (20 mM Tris-HCl, pH8.0, 0.01% Tween 20, 1 mM DTT, 10 mM MgCl2, 0.01% BSA) were added to the wells that were then incubated with the test compound for 20 min. A 6 μL solution of 20 μM of the peptide substrate H3K4me0 (histone H3[1-21]-Biotin) in the reaction buffer was added to initiate each reaction. The final components in the reaction solution include 30 nM MLL1-4C, 2.5 μM SAM, and 10 μM H3K4me0 with varying concentration of the compounds. A positive control consisted of 30 nM MLL1-4C, 2.5 μM SAM, and 10 μM substrate in the absence of the test compound, and a negative control consisted of 2.5 μM SAM, and 10 μM substrate only. Each reaction was incubated at rt for 120 min, then stopped by addition of 3 μL per of quench solution (2.5% TFA with 320 nM d4-SAH). The reaction mixture was centrifuged (Eppendorf centrifuge 5810, Rotor A-4-62) for 2 min at 2000 rmp. The SAH production from the enzymatic assays were monitored by LC-MS/MS on an API 4000 triple quadrupole mass spec with Turbolon Spray (Applied Biosystem) coupled with Prominenece UFLC (Shimazu). The level of SAH production were then normalized based on the values coming from the positive and negative controls to give percent enzyme activities. The data were then fit to a dose response equation using the program Helios (Novartis) to get the IC50 values of the test compound. Helios is a Novartis in-house assay data analysis software using the methods described by Normolle, D. P., Statistics in Medicine, 12:2025-2042 (1993); Formenko, I. et al., Computer Methods and programs in Biomedicine, 82, 31-37 (2006); Sebaugh, J. L., Pharmaceutical Statistics, 10:128-134 (2011); Kelly, C. et al., Biometrics, 46(4):1071-1085 (1990); and Kahm, M, et al., Journal of Statistical Software, 33(7):(2010) (grofit: Fitting Biological Growth Curves with R, pages 1-21, available at http://www.jstatsoft.org/).

| SMILES | IC50 [2] [nM] | AC50 [3] [nM] | AC50 [1] [nM] |
| --- | --- | --- | --- |
| CNc1nccn1Cc1cc(CN2CC[C@@H](F)C2)c2c(c1)C(=O)N([C@@H](C)c1cc(OC)c(F)cn1)CC2 [Example 16] | 10 to 1000 | 10 to 1000 | 10 to 1000 |
| CNc1nccn1Cc1cc(CN2CCC23COC3)c2c(c1)C(=O)N([C@@H](C)c1cc(OC)c(F)cn1)CC2 [Example 17, (S)-5((6-oxa-1-azaspiro+3.3+heptan-1-yl)methyl)-2-(1-(5-fluoro-4-methoxypyridin-2-yl)ethyl)-7-((2-(methylamino)-1H-imidazol-1-yl)methyl)-3,4-dihydroisoquinolin-1(2H)-one] | 10 to 1000 | 10 to 1000 | 10 to 1000 |
| CCOc1cc([C@H](C)N2CCc3c(CN4CCOCC4)cc(Cn4ccnc4NC)cc3C2=O)ncc1Cl [Example 23, (S)-2-(1-(5-chloro-4-ethoxypyridin-2-yl)ethyl)-7-((2-(methylamino)-1H-imidazol-1-yl)methyl)-5-(morpholinomethyl)-3,4-dihydroisoquinolin-1(2H)-one] | 10 to 1000 | 10 to 1000 | 10 to 1000 |
| CCOc1cc([C@H](C)N2CCc3c(CN4CCOCC4)cc(Cn4ccnc4NC)cc3C2=O)ncc1F [Example 27, (S)-2-(1-(4-ethoxy-5-fluoropyridin-2-yl)ethyl)-7-((2-(methylamino)-1H-imidazol-1-yl)methyl)-5-(morpholinomethyl)-3,4-dihydroisoquinolin-1(2H)-one] | 10 to 1000 | 10 to 1000 | 10 to 1000 |
| CCOc1cc([C@H](C)N2CCc3c(CN4CC(F)C4)cc(Cn4ccnc4NC)cc3C2=O)ncc1C#N [Example 28, (S)-4-ethoxy-6-(1-(5-((3-fluoroazetidin-1-yl)methyl)-7-((2-(methylamino)-1H-imidazol-1-yl)methyl)-1-oxo-3,4-dihydroisoquinolin-2(1H)-yl)ethyl)nicotinonitrile] | 10 to 1000 | 10 to 1000 | 10 to 1000 |
| CNc1nccn1Cc1cc(CN(C)C)c2c(c1)C(=O)N([C@@H](C)c1cnc(F)c(OC)c1)CC2 [Example 29, (S)-5-((dimethylamino)methyl)-2-(1-(6-fluoro-5-methoxypyridin-3-yl)ethyl)-7-((2-(methylamino)-1H-imidazol-1-yl)methyl)-3,4-dihydroisoquinolin-1(2H)-one] | 10 to 1000 | 10 to 1000 | 10 to 1000 |

Second part, led by results:

| IC50 [2] [nM] | AC50 [3] [nM] | SMILES | AC50 [1] [nM] |
| --- | --- | --- | --- |
| 10 to 1000 | 10 to 1000 | CNc1nccn1Cc1cc(CN(C)C2CC2)c2c(c1)C(=O)N([C@@H](C)c1cnc(F)c(OC)c1)CC2 [Example 15, (S)-5-((cyclopropyl(methyl)amino)methyl)-2-(1-(6-fluoro-5-methoxypyridin-3-yl)ethyl)-7-((2-(methylamino)-1H-imidazol-1-yl)methyl)-3,4-dihydroisoquinolin-1(2H)-one] | 10 to 1000 |
| 10 to 1000 | 10 to 1000 | CCOc1cc([C@H](C)N2CCc3c(CN(C)C4CC4)cc(Cn4ccnc4NC)cc3C2=O)ncc1C#N [Example 18, (S)-6-(1-(5-((cyclopropyl(methyl)amino)methyl)-7-((2-(methylamino)-1H-imidazol-1-yl)methyl)-1-oxo-3,4-dihydroisoquinolin-2(1H)-yl)ethyl)-4-ethoxynicotinonitrile] | 10 to 1000 |
| 10 to 1000 | 10 to 1000 | CCOc1cc([C@H](C)N2CCc3c(CN(C)C)cc(Cn4ccnc4NC)cc3C2=O)ncc1Cl [Example 20, (S)-2-(1-(5-chloro-4-ethoxypyridin-2-yl)ethyl)-5-((dimethylamino)methyl)-7-((2-(methylamino)-1H-imidazol-1-yl)methyl)-3,4-dihydroisoquinolin-1(2H)-one] | 10 to 1000 |
| 10 to 1000 | 10 to 1000 | CCOc1cc([C@H](C)N2CCc3c(CN(C)C4CC4)cc(Cn4ccnc4NC)cc3C2=O)ncc1F [Example 21, (S)-5-((cyclopropyl(methyl)amino)methyl)-2-(1-(4-ethoxy-5-fluoropyridin-2-yl)ethyl)-7-((2-(methylamino)-1H-imidazol-1-yl)methyl)-3,4-dihydroisoquinolin-1(2H)-one] | 10 to 1000 |
| 10 to 1000 | 10 to 1000 | CCOc1cc([C@H](C)N2CCc3c(CN(C)C4CC4)cc(Cn4ccnc4NC)cc3C2=O)ncc1Cl [Example 22, (S)-2-(1-(5-chloro-4-ethoxypyridin-2-yl)ethyl)-5-((cyclopropyl(methyl)amino)methyl)-7-((2-(methylamino)-1H-imidazol-1-yl)methyl)-3,4-dihydroisoquinolin-1(2H)-one] | 10 to 1000 |
| 10 to 1000 | 10 to 1000 | CCOc1cc(CN2CCc3c(CN(C)C)cc(Cn4ccnc4NC)cc3C2=O)cnc1C#N [Example 24, 5-((5-((dimethylamino)methyl)-7-((2-(methylamino)-1H-imidazol-1-yl)methyl)-1-oxo-3,4-dihydroisoquinolin-2(1H)-yl)methyl)-3-ethoxypicolinonitrile] | 10 to 1000 |
| 10 to 1000 | 10 to 1000 | CCOc1cc(CN2CCc3c(CN4CC(C)C4)cc(Cn4ccnc4NC)cc3C2=O)cnc1C#N [Example 25, 3-ethoxy-5-((7-((2-(methylamino)-1H-imidazol-1-yl)methyl)-5-((3-methylazetidin-1-yl)methyl)-1-oxo-3,4-dihydroisoquinolin-2(1H)-yl)methyl)picolinonitrile] | 10 to 1000 |
| 10 to 1000 | 10 to 1000 | CCOc1cc(CN2CCc3c(CN(C)C4CC4)cc(Cn4ccnc4NC)cc3C2=O)cnc1C#N [Example 26, 5-((5-((cyclopropyl(methyl)amino)methyl)-7-((2-(methylamino)-1H-imidazol-1-yl)methyl)-1-oxo-3,4-dihydroisoquinolin-2(1H)-yl)methyl)-3-ethoxypicolinonitrile] | 10 to 1000 |
